Experimental data from paper PMC11054337, “Identification of Leishmania donovani PEX5-PTS1 Interaction Inhibitors through Fluorescence Polarization-Based High-Throughput Screening” (Molecules, 2024).
Several values for one entry are separate records, joined by “and”; a condition that tells them apart may be missing. Equal values may be shown once. Read-outs that look alike come from different tables or passages of the source. No end group written: not given here.

Assays:
L. major promastigotes = test: L. major promastigote growth inhibition (resazurin); format: cell-based, Leishmania major; settings: for IC50: 72 h exposure, three independent replicates, read-out: L. major IC50 ± SD
Description: (§1) All the restriction enzymes used in this study were sourced from New England BioLabs (240 County Road Ipswich, Ipswich, MA, USA). The PTS1 peptides, both unlabeled and fluorescently labeled at the N-terminus with fluorescein isothiocyanate (FITC), were purchased from Peptron (Daejeon, Republic of Korea). All the inhibitors were purchased from Enamine (Kyiv, Ukraine). L. donovani strain MHOM/SD/62/1S-CL2D and L. major strain LV39 (MRHO/Sv/59/P) were cultured in their extracellular promastigote forms. The parasite was cultured at 28 °C using M199 medium (Sigma-Aldrich, St. Louis, MO, USA) supplemented with 40 mM HEPES, 0.1 mM adenine, 0.0001% biotin, and 4.62 mM NaHCO3, along with additional supplements of hemin and xanthine. The T. brucei brucei Lister strain 427 in its bloodstream form (BSF) was cultured at 37 °C in a controlled atmosphere consisting of 5% CO2 in HMI-9 medium enriched with 10% fetal bovine serum (FBS), 100 µg/mL penicillin, and 100 µg/mL streptomycin. The parasites were maintained through only 10 passages for this study.
(§2) Briefly, the assays were conducted in 384-well plates, each well was seeded with 5 × 10^4 parasites, and the compounds were exposed for 72 h. The compounds were tested in dose-diluted format, starting from 100 μM with a two-fold dilution across 10 points. Subsequently, resazurin was added to each well to achieve a final concentration of 200 μM. The plates were then incubated for an additional 5 h before fixation. The assay results were recorded using a Victor3 plate reader (PerkinElmer, Shelton, CT, USA). For the assessment against L. donovani intracellular amastigotes, phorbol 12-myristate 13-acetate-treated THP-1 cells were seeded at 0.8 × 10^4 cells per well in a 384-well plate in RPMI-1640 complete medium supplemented with 10% FBS. After 48 h, the infection was carried out using L. donovani promastigotes with a multiplicity of infection of 10:1. The infected cells were treated with compounds for 72 h, then the cells and parasites were washed, stained with 5 µM 4′,6-diamidino-2-phenylindole (DAPI), and fixed with 4% paraformaldehyde. Images were acquired using Operetta® CLS™ (PerkinElmer, Shelton, CT, USA), and the numbers of parasites and host cells were quantified using Columbus™ software version 2.8 (PerkinElmer, Shelton, CT, USA).
(§3) All half-maximal inhibitory concentration (IC50) values were determined based on data obtained from three independent experiments. The dose–response curves were generated and analyzed using GraphPad Prism 6 software (GraphPad Software, San Diego, CA, USA). For the analysis, a sigmoidal dose–response equation was employed, incorporating a variable hill slope option.

LdPEX5-PTS1 interaction = target: T1, LdPEX5-PTS1 interaction (Leishmania donovani, UniProt A0A3S7X906); test: biochemical; format: binding; settings: 1 µM LdPEX5, 5 nM FITC-SGAGSKL
T1 construct: encoding LdPEX5CT, corresponding to 322 amino acids (AF198051.1: 303-625), was synthesized; 6xHis (pET15b) (N); made in house; host or cells: Escherichia coli BL21 (DE3)
Description: HTS using FP was conducted to identify inhibitors of the LdPEX5-PTS1 interaction. The screening utilized an in-house compound library comprising 51,406 compounds with diverse structural profiles. All compounds were initially solubilized in 100% DMSO with a concentration of 2 mM, and the final testing concentration in the assay was set at 20 μM. DMSO served as the negative control, while unlabeled PTS1 peptide (TRYPAKL) was used as the positive control. The assay mixture included FITC-SGAGSKL peptide and LdPEX5 at final concentrations of 5 nM and 1 μM, respectively. The reaction plates with compounds were incubated for 1 h at room temperature before FP signal detection. Single-point inhibition assays were performed, and the Z’ factor was employed to assess the quality of the assay. The Z’ factor was calculated using the formula Z′ = 1 − 3(σp + σn)/(μp − μn), where σp and σn are the standard deviations of the positive and negative controls, respectively, and μp and μn represent their respective mean values.
as §3

[1] = system: L. donovani intracellular amastigotes; test: L. donovani intracellular amastigote assay in THP-1 cells (image-based); format: cell-based, Leishmania donovani; settings: infected THP-1 cells, 72 h treatment
Description: as §2

[2] = system: L. donovani promastigotes; test: L. donovani promastigote growth inhibition (resazurin); format: cell-based, Leishmania donovani; settings: for IC50: 72 h exposure, three independent replicates, read-out: L. donovani IC50 ± SD
Description: as §1, §2, §3

T. brucei BSF = T. brucei BSF growth inhibition (resazurin); format: cell-based, Trypanosoma brucei; settings: for Growth inhibition of T. brucei (in words): BSF; for IC50: Trypanosoma brucei, blood stream form, 72 h exposure, three independent replicates, read-out: T. brucei IC50 ± SD
Description: as §1, §2, §3

[3] = IC50 of unlabeled PTS1 peptides, peptide from 60 µM half dilution 10 points
[4] = 1 h, three independent replicates, read-out: LdPEX5-PTS1 Inhibition IC50 ± SD

T1 sequence (A0A3S7X906 entry or part of it): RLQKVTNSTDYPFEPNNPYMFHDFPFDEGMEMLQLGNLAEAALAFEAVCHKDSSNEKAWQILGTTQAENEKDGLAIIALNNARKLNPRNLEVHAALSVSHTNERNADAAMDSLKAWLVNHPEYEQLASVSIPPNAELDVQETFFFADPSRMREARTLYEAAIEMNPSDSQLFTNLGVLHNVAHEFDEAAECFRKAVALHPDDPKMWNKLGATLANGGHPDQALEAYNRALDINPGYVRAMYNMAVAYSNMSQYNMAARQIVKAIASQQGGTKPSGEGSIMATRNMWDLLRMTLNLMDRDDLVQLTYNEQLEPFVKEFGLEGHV

CCCCCCCCCCCCCCCCOP(=O)([O-])OCC[N+](C)(C)C [Miltefosine, reference compound]
IC50 (L. major promastigotes; Leishmania major, 72 h): 7.37 ± 1.67 µM

SGAGSKL [SGAGSKL, reference compound]
IC50 (LdPEX5-PTS1 interaction; [3]): 10.7 µM

O=C(Nc1nc2ccccc2nc1N1CCCC1)c1ccc(Cn2cccn2)cc1 [P10, 4-((1H-pyrazol-1-yl)methyl)-N-(3-(pyrrolidin-1-yl)quinoxalin-2-yl)]
Activity against intracellular amastigote form of Leishmania [1]: inactive | IC50 ([2]; Leishmania donovani, 72 h): 3.3 ± 0.23 µM | Growth inhibition of L. major (in words) (L. major promastigotes): not active | IC50 (L. major promastigotes; Leishmania major, 72 h): > 50 µM | IC50 (LdPEX5-PTS1 interaction; [4]): ~16 µM and 16.2 µM | Growth inhibition of T. brucei (in words) (T. brucei BSF): not active | IC50 (T. brucei BSF): > 50 µM

CCc1ncc2c(n1)CN(Cc1cc(=O)n3cccc(C)c3n1)CC2 [P21]
IC50 ([2]; Leishmania donovani, 72 h): > 50 µM | IC50 (L. major promastigotes; Leishmania major, 72 h): > 50 µM | IC50 (LdPEX5-PTS1 interaction; [4]): 24.5 ± 1.05 µM | IC50 (T. brucei BSF): > 50 µM

CNc1ccc(Nc2ncnc3sccc23)cn1 [P20, N^2-methyl-N^5-(thieno [2,3-d]pyrimidin-4-yl)pyridine-2,5-diamine]
Activity against intracellular amastigote form of Leishmania [1]: inactive | Growth inhibition of L. donovani (in words) [2]: inhibitory activity | IC50 [2]: 12.2 ± 1.36 µM | IC50 ([2]; Leishmania donovani, 72 h): 19.2 ± 2.65 µM | Growth inhibition of L. major (in words) (L. major promastigotes): inhibitory activity | IC50 (L. major promastigotes): 19.2 ± 2.65 µM | IC50 (L. major promastigotes; Leishmania major, 72 h): 12.2 ± 1.36 µM | IC50 (LdPEX5-PTS1 interaction; [4]): 16.5 ± 0.79 µM | Growth inhibition of T. brucei (in words) (T. brucei BSF): inhibitory activity | IC50 (T. brucei BSF): 3.06 ± 0.38 µM

COc1ccc(NC(=O)C2(S(=O)(=O)c3ccc(Cl)cc3)CCCC2)cn1 [P08, 1-((4-chlorophenyl)sulfonyl)-N-(6-methoxypyridin-3-yl)cyclopentane-1-carboxamide]
IC50 ([2]; Leishmania donovani, 72 h): > 50 µM | IC50 (L. major promastigotes; Leishmania major, 72 h): > 50 µM | IC50 (LdPEX5-PTS1 interaction; [4]): 3.89 ± 0.15 µM | IC50 (T. brucei BSF): > 50 µM

Cc1ccc(C(=O)Nc2nc3ccccc3nc2N2CCCC2)cc1S(C)(=O)=O [P16]
Growth inhibition of L. donovani (in words) [2]: not able to inhibit the growth | IC50 ([2]; Leishmania donovani, 72 h): > 50 µM | Growth inhibition of L. major (in words) (L. major promastigotes): not able to inhibit the growth | IC50 (L. major promastigotes; Leishmania major, 72 h): > 50 µM | IC50 (LdPEX5-PTS1 interaction; [4]): ~16 µM and 16.9 µM | Growth inhibition of T. brucei (in words) (T. brucei BSF): not able to inhibit the growth | IC50 (T. brucei BSF): > 50 µM

CCOc1ccc(NC2CCN(Cc3cscn3)CC2)cn1 [P28]
IC50 ([2]; Leishmania donovani, 72 h): > 50 µM | IC50 (L. major promastigotes; Leishmania major, 72 h): > 50 µM | IC50 (LdPEX5-PTS1 interaction; [4]): 16 ± 0.96 µM | IC50 (T. brucei BSF): > 50 µM

CN(C)c1ccc(Nc2cnc3ccccc3n2)cn1 [P02]
IC50 ([2]; Leishmania donovani, 72 h): > 50 µM | IC50 (L. major promastigotes; Leishmania major, 72 h): > 50 µM | IC50 (LdPEX5-PTS1 interaction; [4]): 23.6 ± 0.86 µM | IC50 (T. brucei BSF): > 50 µM

Cn1ncc(-c2nc3cc(S(N)(=O)=O)ccc3[nH]2)n1 [P04, 2-(2-methyl-2H-1,2,3-triazol-4-yl)-1H-benzo[d]imidazole-5-sulfonamide]
IC50 ([2]; Leishmania donovani, 72 h): > 50 µM | IC50 (L. major promastigotes; Leishmania major, 72 h): > 50 µM | IC50 (LdPEX5-PTS1 interaction; [4]): 14.6 ± 0.76 µM | IC50 (T. brucei BSF): 12.1 ± 2.19 µM

N=C(N)c1ccc(OCCCCCOc2ccc(C(=N)N)cc2)cc1 [Pentamidine, reference compound]
IC50 (T. brucei BSF): 0.69 ± 0.05 µM

TRYPAKL [TRYPAKL, reference compound]
IC50 (LdPEX5-PTS1 interaction; [3]): 3.61 µM

Cc1cc(C(=O)Nc2cc(C(N)=O)ccc2N2CCCCC2)c2c(C)noc2n1 [P17]
IC50 ([2]; Leishmania donovani, 72 h): > 50 µM | IC50 (L. major promastigotes; Leishmania major, 72 h): > 50 µM | IC50 (LdPEX5-PTS1 interaction; [4]): 25.2 ± 0.89 µM | IC50 (T. brucei BSF): > 50 µM

ARLASKV [ARLASKV, reference compound]
IC50 (LdPEX5-PTS1 interaction; [3]): > 60 µM

C[C@@H]1[C@H](O)[C@@H](C)/C=C/C=C/C=C/C=C/C=C/C=C/C=C/[C@H](O[C@@H]2O[C@H](C)[C@@H](O)[C@H](N)[C@@H]2O)C[C@@H]2O[C@](O)(C[C@@H](O)C[C@@H](O)[C@H](O)CC[C@@H](O)C[C@@H](O)CC(=O)O[C@H]1C)C[C@H](O)[C@H]2C(=O)O [Amphotericin B, reference compound]
IC50 ([2]; Leishmania donovani, 72 h): 0.42 ± 0.03 µM
